According to patent publication US20110039770A1, “INHIBITORS OF PROTEIN KINASE C ISOFORMS AND USES THEREOF” (PHARMAGAP INC., priority 2005, published 2011):
Where two headings read alike, the source gives them in different places. Where a SMILES comes first, the peptide text is derived from it. Bridges are numbered along the chain shown (N, C = ends). Roman numbers before positions name the chains, in order. [ ]: non-standard residue; d: D form. The star is where a group is joined. PNA(A) = NCCN(CC(=O)*)C(=O)Cn1cnc2c(N)ncnc21; Adenin9ylacetyl = Nc1ncnc2c1ncn2CC(=O)*; Gly(N-2-aminoethyl) = NCCNCC(=O)O

What was measured:
PKC delta [1] = target: T1, PKC delta (Homo sapiens, UniProt Q05655); assay: PepTag Non-Radioactive PKC Assay, purified isoform; type: biochemical; details: negative = activation
T1 sequence (Q05655 whole entry, canonical isoform): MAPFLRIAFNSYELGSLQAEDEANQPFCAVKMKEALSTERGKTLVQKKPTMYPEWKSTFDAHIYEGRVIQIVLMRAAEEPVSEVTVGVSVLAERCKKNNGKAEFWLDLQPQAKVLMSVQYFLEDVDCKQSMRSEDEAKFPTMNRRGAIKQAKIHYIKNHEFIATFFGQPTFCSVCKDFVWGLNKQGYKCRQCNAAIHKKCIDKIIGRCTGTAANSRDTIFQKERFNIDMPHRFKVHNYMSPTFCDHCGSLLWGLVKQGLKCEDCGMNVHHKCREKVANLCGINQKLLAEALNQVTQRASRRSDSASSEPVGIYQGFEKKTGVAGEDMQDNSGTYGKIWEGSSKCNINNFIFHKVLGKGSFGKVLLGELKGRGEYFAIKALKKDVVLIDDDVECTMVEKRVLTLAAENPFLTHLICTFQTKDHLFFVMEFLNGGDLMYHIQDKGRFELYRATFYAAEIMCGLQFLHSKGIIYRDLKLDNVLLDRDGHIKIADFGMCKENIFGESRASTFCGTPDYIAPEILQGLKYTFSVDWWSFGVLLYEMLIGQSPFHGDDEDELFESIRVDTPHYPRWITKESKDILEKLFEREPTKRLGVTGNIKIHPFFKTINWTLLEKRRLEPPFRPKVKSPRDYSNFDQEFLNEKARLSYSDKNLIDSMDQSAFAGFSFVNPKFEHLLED
Protocol: (§1) The inhibitory effect of the PKI compounds 1 to 10 on purified commercially available isoforms representative of the 3 classes of PKC: cPKC (alpha, betaI/II) nPKC (delta and epsilon) aPKC (zeta) was assayed using the PepTag® Non-Radioactive PKC Assay (Promega, Madison, Wis.). The zeta isoform was tested with this assay although its affinity for the substrate provided in the kit was relatively low. The amount of enzyme in the reaction mixture for the PKC zeta assays was multiplied by 2. The assay was used following the manufacturer's recommendations. The principle of the assay is based on the difference in charge of phosphorylated (negatively charged) form versus the non-phoshorylated form of a fluorescent substrate. The two forms can be separated by gel electrophoresis and the negatively charged band excised and the fluorescence measured (exc. 440 nm and em. 590 nm) in 96 well plates on a Galaxy FluoStar plate reader. The PKI compounds were added to the assay mixture at 3 doses: 150, 300 and 600 μM and an extra 75 μM when the inhibition was too high. The assay is strictly biochemical and the doses of the compounds used, therefore, are generally not correlative with in vivo situations.

PKC beta 2 = target: T2, PKC beta 2 (Homo sapiens, UniProt P05771); assay: PepTag Non-Radioactive PKC Assay, purified isoform; type: biochemical; details: negative = activation
T2 construct: purchased
T2 sequence (P05771 1-673 isoform P05771-2): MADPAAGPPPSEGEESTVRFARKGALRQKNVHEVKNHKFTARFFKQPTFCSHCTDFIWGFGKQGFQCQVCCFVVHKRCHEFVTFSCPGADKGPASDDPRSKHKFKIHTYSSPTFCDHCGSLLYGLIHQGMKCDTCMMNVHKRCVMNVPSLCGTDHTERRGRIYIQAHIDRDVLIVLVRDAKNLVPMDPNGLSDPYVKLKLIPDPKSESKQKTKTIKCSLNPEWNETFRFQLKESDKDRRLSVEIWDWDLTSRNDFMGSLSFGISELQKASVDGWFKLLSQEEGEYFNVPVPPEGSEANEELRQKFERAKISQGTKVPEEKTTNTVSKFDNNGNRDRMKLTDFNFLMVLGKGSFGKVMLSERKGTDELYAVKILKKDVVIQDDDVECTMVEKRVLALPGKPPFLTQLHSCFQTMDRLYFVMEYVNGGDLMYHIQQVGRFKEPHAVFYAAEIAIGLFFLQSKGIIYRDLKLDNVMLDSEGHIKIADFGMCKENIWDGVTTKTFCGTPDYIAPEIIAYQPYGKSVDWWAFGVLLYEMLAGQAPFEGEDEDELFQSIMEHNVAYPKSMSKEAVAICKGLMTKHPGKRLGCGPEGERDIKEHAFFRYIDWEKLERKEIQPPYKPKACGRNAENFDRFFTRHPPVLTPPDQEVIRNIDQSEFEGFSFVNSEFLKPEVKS
Protocol: as §1

PKC alpha = PKC alpha (Homo sapiens, UniProt P17252); assay: PepTag Non-Radioactive PKC Assay, purified isoform; type: biochemical; parameters: purchased; details: negative = activation
Protocol: as §1

PKC beta 1 = PKC beta 1 (Homo sapiens, UniProt P05771); assay: PepTag Non-Radioactive PKC Assay, purified isoform; type: biochemical; parameters: purchased; details: negative = activation
Sequence of PKC beta 1 (P05771 whole entry, canonical isoform): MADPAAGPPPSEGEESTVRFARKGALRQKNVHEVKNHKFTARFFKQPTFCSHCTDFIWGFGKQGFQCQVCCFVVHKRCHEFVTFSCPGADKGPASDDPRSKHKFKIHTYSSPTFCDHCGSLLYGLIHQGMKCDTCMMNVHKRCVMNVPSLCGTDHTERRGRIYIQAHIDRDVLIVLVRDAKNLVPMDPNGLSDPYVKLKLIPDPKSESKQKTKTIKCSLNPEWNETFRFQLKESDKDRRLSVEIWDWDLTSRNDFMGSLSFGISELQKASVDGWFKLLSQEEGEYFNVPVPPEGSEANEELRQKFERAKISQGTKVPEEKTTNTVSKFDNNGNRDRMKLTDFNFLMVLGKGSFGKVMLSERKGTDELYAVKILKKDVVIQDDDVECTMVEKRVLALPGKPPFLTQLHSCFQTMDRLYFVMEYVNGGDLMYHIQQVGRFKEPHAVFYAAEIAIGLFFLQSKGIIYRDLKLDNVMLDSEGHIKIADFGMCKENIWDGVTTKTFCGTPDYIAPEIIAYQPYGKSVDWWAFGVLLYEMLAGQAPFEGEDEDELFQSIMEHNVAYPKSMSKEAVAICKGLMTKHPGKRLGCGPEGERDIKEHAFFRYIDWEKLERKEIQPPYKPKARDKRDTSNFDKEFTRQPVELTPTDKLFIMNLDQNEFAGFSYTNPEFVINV
Protocol: as §1

PKC zeta = target: T3, PKC zeta (Homo sapiens, UniProt Q05513); assay: PepTag Non-Radioactive PKC Assay, purified isoform; type: biochemical; parameters: purchased; details: enzyme amount x2, negative = activation
T3 sequence (Q05513 1-592): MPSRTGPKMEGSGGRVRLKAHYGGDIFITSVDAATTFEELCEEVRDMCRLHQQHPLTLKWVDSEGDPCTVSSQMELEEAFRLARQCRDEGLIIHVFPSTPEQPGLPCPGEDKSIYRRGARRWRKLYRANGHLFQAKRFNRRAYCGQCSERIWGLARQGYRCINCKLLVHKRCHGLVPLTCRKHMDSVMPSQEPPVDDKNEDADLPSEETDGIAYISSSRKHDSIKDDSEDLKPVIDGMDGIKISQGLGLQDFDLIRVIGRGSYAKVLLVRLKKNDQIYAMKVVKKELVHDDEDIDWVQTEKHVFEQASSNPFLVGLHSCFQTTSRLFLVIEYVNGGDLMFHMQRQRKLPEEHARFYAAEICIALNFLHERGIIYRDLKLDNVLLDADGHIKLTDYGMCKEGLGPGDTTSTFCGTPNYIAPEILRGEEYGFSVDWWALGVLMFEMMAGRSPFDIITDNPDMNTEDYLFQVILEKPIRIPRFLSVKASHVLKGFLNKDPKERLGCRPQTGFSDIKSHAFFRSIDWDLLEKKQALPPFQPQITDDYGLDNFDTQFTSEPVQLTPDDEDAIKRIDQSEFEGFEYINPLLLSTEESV
Protocol: as §1

PKC epsilon = target: T4, PKC epsilon (Homo sapiens, UniProt Q02156); assay: PepTag Non-Radioactive PKC Assay, purified isoform; type: biochemical; parameters: purchased; details: negative = activation
T4 sequence (Q02156 1-737): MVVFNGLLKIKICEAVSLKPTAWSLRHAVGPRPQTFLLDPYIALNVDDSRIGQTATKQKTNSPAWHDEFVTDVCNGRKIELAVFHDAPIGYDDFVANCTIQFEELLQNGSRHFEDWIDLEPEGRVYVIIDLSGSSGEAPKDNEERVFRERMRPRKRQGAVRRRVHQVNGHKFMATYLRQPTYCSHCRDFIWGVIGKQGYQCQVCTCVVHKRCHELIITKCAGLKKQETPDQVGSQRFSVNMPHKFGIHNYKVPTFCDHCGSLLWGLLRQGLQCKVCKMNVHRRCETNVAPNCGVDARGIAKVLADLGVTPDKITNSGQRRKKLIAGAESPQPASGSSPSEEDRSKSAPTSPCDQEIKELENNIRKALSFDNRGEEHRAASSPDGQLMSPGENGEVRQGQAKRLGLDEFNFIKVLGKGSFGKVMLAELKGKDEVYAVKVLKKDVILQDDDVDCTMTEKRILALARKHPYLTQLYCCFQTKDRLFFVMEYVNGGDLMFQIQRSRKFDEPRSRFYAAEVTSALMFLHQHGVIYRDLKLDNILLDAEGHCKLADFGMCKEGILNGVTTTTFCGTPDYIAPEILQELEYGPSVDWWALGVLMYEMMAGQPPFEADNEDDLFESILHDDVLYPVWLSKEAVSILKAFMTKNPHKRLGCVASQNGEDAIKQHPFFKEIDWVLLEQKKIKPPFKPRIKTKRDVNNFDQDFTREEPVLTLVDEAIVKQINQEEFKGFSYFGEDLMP
Protocol: as §1

[2] = test system: IMR-32 human neuroblastoma cells
Protocol: The ability of compounds PKI 1, PKI 2 and PKI 3 to inhibit cancer cell proliferation was tested in vitro using the human neuroblastoma cell line IMR-32. Monolayer cell cultures were trypsinized and the test compound was added at the doses indicated in Table 24 and internalized by pinocytic endocytosis using Influx TM pinocytic cell-loading reagent, a kit from Molecular Probes (Eugene, Oreg.) following the manufacturer's recommendations. The indicated doses refer to the concentration in the loading medium, which was used on 1×10^6 cells in a 10 μl volume, i.e. contained 10 μg to 100 ug of test compound that provides […] per cell. […] The cells were treated on day 0 of the experiment. The cells loaded with test compound were cultured in 96 well plates (5,000 cells in 100 μl per well), and the proliferation was monitored over 3 consecutive days. The increase in cell population was quantified using a Hoechst reagent-based assay (modified from Rao and Otto, 1992, Analytical Biochem. 207:186-192) that measures the total DNA of the population. Fluorescence was measured using a Millipore CytoFluor 2350 plate reader (excitation at 360 nm and emission at 460 nm). The measurements were obtained as relative fluorescence intensity, a value that is directly correlated to the total number of cells. Data are expressed as a percentage of matching controls that were supplemented with culture medium alone.
The ability of the compound TIM 9 to inhibit cancer cell proliferation was tested in vitro using the human neuroblastoma cell line IMR-32 and following the general protocol described in Example 14.
The ability of the compound TIM 11 to inhibit IMR-32 cancer cell proliferation was tested in vitro following the general protocol described in Example 14.
The ability of the compound TIM 10 to inhibit cancer cell proliferation was tested in vitro using the human neuroblastoma IMR-32 cell line and following the general protocol described in Example 14.

PKC delta [3] = target: T1, PKC delta; assay: Kinase-Glo Luminescent Kinase Assay; type: biochemical
Protocol: Compounds TIM 10, 11, 13, 14, 15, and 18-22 (see Table 28) were tested for their ability to inhibit the activity of PKC-alpha, beta 1, delta and epsilon isoforms the Kinase-Glo™ Luminescent Kinase Assay (Promega, Cat # V6712/3/4) following the manufacturer's instructions.

[4] = 1.0 mg/mL in loading medium, 24 h
[5] = 1.0 mg/mL in loading medium, 48 h
[6] = 1.0 mg/mL in loading medium, 72 h
[7] = 2.5 mg/mL in loading medium, 24 h
[8] = 2.5 mg/mL in loading medium, 48 h
[9] = 2.5 mg/mL in loading medium, 72 h
[10] = 5.0 mg/mL in loading medium, 24 h
[11] = 5.0 mg/mL in loading medium, 48 h
[12] = 5.0 mg/mL in loading medium, 72 h
[13] = 10.0 mg/mL in loading medium, 24 h
[14] = 10.0 mg/mL in loading medium, 48 h
[15] = 10.0 mg/mL in loading medium, 72 h

Molecule	inhibition at 150 µM (PKC delta [1]) [%]	inhibition at 300 µM (PKC delta [1]) [%]	inhibition at 600 µM (PKC delta [1]) [%]	inhibition at 150 µM (PKC beta 2) [%]	inhibition at 300 µM (PKC beta 2) [%]	inhibition at 600 µM (PKC beta 2) [%]	inhibition at 150 µM (PKC alpha) [%]	inhibition at 300 µM (PKC alpha) [%]	inhibition at 600 µM (PKC alpha) [%]	inhibition at 150 µM (PKC beta 1) [%]	inhibition at 300 µM (PKC beta 1) [%]	inhibition at 600 µM (PKC beta 1) [%]	inhibition at 150 µM (PKC zeta) [%]	inhibition at 300 µM (PKC zeta) [%]	inhibition at 600 µM (PKC zeta) [%]	inhibition at 150 µM (PKC epsilon) [%]	inhibition at 300 µM (PKC epsilon) [%]	inhibition at 600 µM (PKC epsilon) [%]	% Inhibition of IMR-32 proliferation [2, 4] [%]	% Inhibition of IMR-32 proliferation [2, 5] [%]	also measured
CC[C@H](C)[C@H](NC(=O)[C@H](CSSC[C@H](NC(=O)CNC(=O)CN(CCN)C(=O)Cn1cnc2c(N)ncnc21)C(=O)N[C@@H](CCCCN)C(=O)NCC(=O)N[C@@H](CCCCN)C(=O)N[C@@H](Cc1ccccc1)C(=O)N[C@@H](CCCCN)C(=O)N[C@@H](CCCNC(=N)N)C(N)=O)NC(=O)[C@H](Cc1c[nH]cn1)NC(C)=O)C(=O)NCC(=O)N[C@@H](CCCNC(=N)N)C(=O)N[C@@H](Cc1ccccc1)C(=O)N[C@@H](CCCCN)C(N)=O [PKI 1] (I: Adenin9ylacetyl-[Gly(N-2-aminoethyl)]GCKGKFKR-NH2 / II: Ac-HCIGRFK-NH2; disulfide I:3-II:2; C-terminus assumed)	56	61	88	78	90	92	78	84	87	71	92	93	15	10	20	54	58	83			
CC(=O)N[C@@H](CC(C)C)C(=O)N[C@@H](CCCNC(=N)N)C(=O)N[C@@H](CCCNC(=N)N)C(=O)N[C@@H](C)C(=O)N[C@@H](CCCCNC(=O)CN(CCN)C(=O)Cn1cnc2c(N)ncnc21)C(=O)N[C@@H](CC(C)C)C(=O)NCC(N)=O [PKI 2] (Ac-LRRAK(PNA(A))LG-NH2; C-terminus assumed)	59	79	84	-59	61	74	-24	35	83	18	52	70	0	6	20	58	67	84	49	51	% Inhibition of IMR-32 proliferation [2, 6]: 10%; % Inhibition of IMR-32 proliferation [2, 7]: 29%; % Inhibition of IMR-32 proliferation [2, 8]: 21%; % Inhibition of IMR-32 proliferation [2, 9]: 26%; % Inhibition of IMR-32 proliferation [2, 10]: 31%; % Inhibition of IMR-32 proliferation [2, 11]: 20%; % Inhibition of IMR-32 proliferation [2, 12]: 17%; % Inhibition of IMR-32 proliferation [2, 13]: 31%; % Inhibition of IMR-32 proliferation [2, 14]: 29%; % Inhibition of IMR-32 proliferation [2, 15]: 21%
CC(=O)N[C@@H](Cc1ccccc1)C(=O)N[C@@H](CCCNC(=N)N)C(=O)N[C@@H](CCCNC(=N)N)C(=O)N[C@@H](CCCCNC(=O)CN(CCN)C(=O)Cn1cnc2c(N)ncnc21)C(=O)N[C@@H](Cc1ccccc1)C(=O)N[C@@H](CCCNC(=N)N)C(=O)N[C@@H](CC(C)C)C(N)=O [PKI 3] (Ac-FRRK(PNA(A))FRL-NH2; C-terminus assumed)	32	41	70	31	83	81	47	51	82	37	76	80	37	40	56	38	53	68	70	72	% Inhibition of IMR-32 proliferation [2, 6]: 72%; % Inhibition of IMR-32 proliferation [2, 7]: 26%; % Inhibition of IMR-32 proliferation [2, 8]: 29%; % Inhibition of IMR-32 proliferation [2, 9]: 14%; % Inhibition of IMR-32 proliferation [2, 10]: 29%; % Inhibition of IMR-32 proliferation [2, 11]: 31%; % Inhibition of IMR-32 proliferation [2, 12]: 22%; % Inhibition of IMR-32 proliferation [2, 13]: 26%; % Inhibition of IMR-32 proliferation [2, 14]: 30%; % Inhibition of IMR-32 proliferation [2, 15]: 22%
Ac—FRRCFRL—(G)7—RRKKGGKDFVVKR—NH2 (Ac-FRRCFRLGGGGGGGRRKKGGKDFVVKR-NH2) [TIM 20, PRE 1 and PKI 4]																					% Inhibition PKC-δ (PKC delta [3]; 5.0 μM): 46.0%; % Inhibition PKC-δ (PKC delta [3]; 30.0 μM): 45.4%; inhibition of PKC delta activity (in words) (PKC delta [3]; Kinase-Glo): good specificity for PKC delta
